Literature values, collected in article PMC8405607 (British Journal of Cancer, 2021).

Key:
p53 = test system: p53; set-up: method as in PMID 21643018; settings: prolonged exposure; cited from earlier work
[1] = set-up: method as in PMID 24309210, PMID 23084521, PMID 28240971; settings: liposarcoma trial; cited from earlier work

| SMILES | p53 mutations (p53) | patients experiencing grade 4 neutropenia [1] [%] | patients experiencing prolonged grade 4 thrombocytopenia [1] [%] |
| --- | --- | --- | --- |
| COc1ccc(C2=N[C@@H](c3ccc(Cl)cc3)[C@@H](c3ccc(Cl)cc3)N2C(=O)N2CCNC(=O)C2)c(OC(C)C)c1 [Nutlin-3a] | increased incidence of p53 mutations |  |  |
| CCOc1cc(C(C)(C)C)ccc1C1=N[C@@](C)(c2ccc(Cl)cc2)[C@@](C)(c2ccc(Cl)cc2)N1C(=O)N1CCN(CCCS(C)(=O)=O)CC1 [RG7112] |  | 30 | 15 |
